According to patent US8349862B2, “Pyridine derivatives for the treatment of metabolic disorders related to insulin resistance or hyperglycemia” (Piramal Healthcare Limited, priority 2006, dated 2013):

Assays:
Mouse PPARγ = target: T1, Mouse PPARγ (Mus musculus, UniProt P37238); assay: Mouse PPARγ assay (TransAM PPARγ ELISA, 3T3-L1 fibroblasts); type: cell-based; settings: 72 hrs, Compound 1 50 μM, Rosiglitazone 10 μM
T1 construct: endogenous in cells; host or cells: 3T3-L1 fibroblasts
T1 sequence (P37238 1-505): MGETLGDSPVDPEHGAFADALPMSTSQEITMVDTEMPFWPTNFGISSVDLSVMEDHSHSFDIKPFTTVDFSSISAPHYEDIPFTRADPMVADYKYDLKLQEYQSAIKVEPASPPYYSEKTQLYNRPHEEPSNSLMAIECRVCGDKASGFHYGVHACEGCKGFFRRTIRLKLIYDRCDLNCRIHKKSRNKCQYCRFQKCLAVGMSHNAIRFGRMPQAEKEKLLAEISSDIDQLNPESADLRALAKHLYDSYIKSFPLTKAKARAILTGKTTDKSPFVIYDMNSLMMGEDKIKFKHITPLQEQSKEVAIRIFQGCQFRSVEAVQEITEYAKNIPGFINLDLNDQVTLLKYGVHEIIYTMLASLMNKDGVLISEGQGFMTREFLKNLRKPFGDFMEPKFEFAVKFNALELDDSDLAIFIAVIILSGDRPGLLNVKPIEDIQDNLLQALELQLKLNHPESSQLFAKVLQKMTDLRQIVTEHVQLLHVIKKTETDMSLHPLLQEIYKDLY
Procedure: The assay was designed as in the reference, Blood, 104(5), 1361-8, 2004, the disclosure of which is incorporated by reference for the teaching of the assay.
3T3-L1 fibroblasts were seeded in 6-well plates at a density of 4×10^4 cells/well and cultured in DMEM containing 10% calf serum. […] The plates were incubated for 72 hrs at 37° C. in a CO2 incubator with fresh medium containing test substances added after first 48 hrs. After 72 hrs, the medium was removed; the cell layer was washed and processed for the PPARγ assay as per the instruction of the manufacturer (Active Motif, North America, California, USA). PPARγ activation was determined using 96-well ELISA assay as per the instruction manual (TransAM PPARγ. Active Motif, Cat 0.40196).

[1] = system: diet induced obese (DIO) C57Bl6/J mice; assay: Evaluation of antiobesity, chronic study: diet induced obese mice; type: in vivo; settings: 200 mg/kg intraperitoneally, 10 days of treatment
Procedure: Diet induced obese (DIO) mice were treated with either standard (Sibutramine) or Compound 1 for 10 days.
Cumulative body weight gain of diet induced obese (DIO) mice treated with either standard (Sibutramine) or Compound 1 for 10 days is indicated.
The assay was designed as in the reference, British Journal of Pharmacology, 132, 1898-1904, 2001, the disclosure of which is incorporated by reference for the teaching of the assay. Male C57Bl6/J mice (3-4 weeks of age) were housed in groups of 10 animals per cage in the animal facility. High fat diet (D12451 Research Diets Inc., New Brunswick, N.J. 08901, USA), 45% kcal from fat) and water were provided ad libitum for 14 weeks. After this period, the animals were housed individually in cages. The animals were weighed and separated into groups with similar body weight. They were acclimatized to the experimental procedures for 2 days Animals were dosed intraperitoneally with test compound (200 mg/kg) or the standard (Sibutramine, 3 mg/kg) in 10 ml/kg of 0.5% CMC vehicle between 10:00 h-12:00 h. After drug administration the animals were presented with a pre-weighed amount of food in the food cup. Weight of feed remaining in the cup and body weight were recorded daily just prior to dosing. The change in weight and cumulative food intake were computed. The results are indicated in FIG. 2 and FIG. 3. • Conclusions: 1. […]

In the case of `CC(=O)N1CCN(c2ccc(Oc3ncc(NS(=O)(=O)c4ccc(Cl)cc4Cl)cc3Cl)cc2)CC1` [Compound 1, N-(6-(4-(4-Acetylpiperazin-1-yl)phenoxy)-5-chloropyridin-3-yl)-2,4-dichlorobenzene-sulfonamide], the “PPARγ activity (% of rosiglitazone)” value (Mouse PPARγ) is reported as 5.1 % of rosiglitazone, the “Cumulative body weight gain” value [1] is reported as “effective in reducing cumulative body weight gain” and the Cumulative food intake [1] is reported as “effective in reducing cumulative food intake”.
